# Like-named read-outs stand apart in the source and are kept apart here.
# What was measured:
# [1] = target: T1, protein kinases (human kinome) (Homo sapiens, UniProt P33981); assay type: cell-based; conditions: experiment wp146
# T1 sequence (P33981 1-857): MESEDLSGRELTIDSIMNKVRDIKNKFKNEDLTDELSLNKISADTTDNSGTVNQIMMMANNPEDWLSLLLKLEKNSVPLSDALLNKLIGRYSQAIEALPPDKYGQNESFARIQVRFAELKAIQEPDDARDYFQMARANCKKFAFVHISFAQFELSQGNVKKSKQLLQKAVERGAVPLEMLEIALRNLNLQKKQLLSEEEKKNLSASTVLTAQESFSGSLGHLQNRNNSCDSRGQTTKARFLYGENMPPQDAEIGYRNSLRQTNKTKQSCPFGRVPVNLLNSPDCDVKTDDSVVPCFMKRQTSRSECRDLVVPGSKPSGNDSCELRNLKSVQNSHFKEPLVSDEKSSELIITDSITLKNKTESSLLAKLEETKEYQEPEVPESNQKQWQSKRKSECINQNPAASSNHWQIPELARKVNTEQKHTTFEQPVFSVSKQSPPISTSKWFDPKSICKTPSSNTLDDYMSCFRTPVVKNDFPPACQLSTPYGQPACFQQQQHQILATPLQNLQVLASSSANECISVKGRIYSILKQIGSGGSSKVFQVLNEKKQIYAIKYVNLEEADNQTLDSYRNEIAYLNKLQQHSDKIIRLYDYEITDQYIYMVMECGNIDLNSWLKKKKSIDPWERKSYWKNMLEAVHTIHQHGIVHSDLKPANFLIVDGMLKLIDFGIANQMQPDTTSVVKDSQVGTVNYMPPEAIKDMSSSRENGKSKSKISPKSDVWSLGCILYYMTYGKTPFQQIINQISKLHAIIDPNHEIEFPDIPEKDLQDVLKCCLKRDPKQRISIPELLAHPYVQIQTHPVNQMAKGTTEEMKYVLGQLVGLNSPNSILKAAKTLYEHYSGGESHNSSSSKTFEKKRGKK
# From the text: (§1) Although development of targeted protein degraders requires a POI binder, among already-liganded proteins such as kinases, it was hypothesized that different targets would have a different propensity for current approaches to degrader-mediated destruction, which was termed ‘degradability’. […] It was rationalized that the probability of identifying the same kinase as a false positive in multiple treatments is low, therefore this analysis served to also assess the robustness of our data and subsequent interpretations. […] Overall, 62 protein kinases were degraded in more than 10 independent treatments, and remarkably, 9 of these (CDK4, AURKA, FER, WEE1, BLK. LIMK2, CDK6, GAK, LIMK1) were each degraded in at least 40 of the 154 independent treatments, emphasizing their predisposition to induced degradation (FIG. 1G; Appendix I).
# (§2) Next, the frequency of degradation assessment was corrected for over-representation of molecules in the full dataset by omitting replicate profiling of compounds under different experimental conditions, to remove any bias. […] Unsurprisingly, the top degradable kinases mirror those from the previous analysis (CDK4, AURKA, FER, WEE1, BLK), confirming that in sufficiently large datasets, even with over-representation of certain molecules, frequency of degradation is a good measure of general tractability.
# [2] = target: protein kinases (human kinome) (Homo sapiens, UniProt P45984); assay type: cell-based; conditions: MAPK9 P45984-1; experiment wp146
# protein kinases (human kinome) (Homo sapiens, UniProt P45984), sequence (P45984 whole entry): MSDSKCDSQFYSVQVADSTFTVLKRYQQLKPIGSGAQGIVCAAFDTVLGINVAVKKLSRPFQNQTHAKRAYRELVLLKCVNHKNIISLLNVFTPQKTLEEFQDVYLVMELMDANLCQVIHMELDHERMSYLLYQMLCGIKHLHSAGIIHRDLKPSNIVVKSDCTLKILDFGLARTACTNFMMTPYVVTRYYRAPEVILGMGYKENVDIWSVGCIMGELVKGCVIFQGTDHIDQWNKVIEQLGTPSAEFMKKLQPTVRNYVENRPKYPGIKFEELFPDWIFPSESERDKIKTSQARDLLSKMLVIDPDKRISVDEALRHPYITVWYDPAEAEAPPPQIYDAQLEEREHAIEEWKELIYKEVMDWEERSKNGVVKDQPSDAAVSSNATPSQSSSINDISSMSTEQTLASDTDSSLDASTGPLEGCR
# From the text: as §1, §2
# [3] = target: protein kinases (human kinome) (Homo sapiens, UniProt Q00535); assay type: cell-based; conditions: experiment wp146
# protein kinases (human kinome) (Homo sapiens, UniProt Q00535), sequence (Q00535 whole entry): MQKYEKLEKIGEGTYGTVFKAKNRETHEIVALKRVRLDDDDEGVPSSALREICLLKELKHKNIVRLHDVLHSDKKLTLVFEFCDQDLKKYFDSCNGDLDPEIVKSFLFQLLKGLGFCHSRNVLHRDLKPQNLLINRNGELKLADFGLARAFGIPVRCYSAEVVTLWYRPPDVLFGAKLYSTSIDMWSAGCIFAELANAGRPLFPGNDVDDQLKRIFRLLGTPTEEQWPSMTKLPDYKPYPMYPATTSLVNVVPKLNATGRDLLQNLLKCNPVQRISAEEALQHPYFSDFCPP
# From the text: as §1, §2
# [4] = target: protein kinases (human kinome) (Homo sapiens, UniProt P51812); assay type: cell-based; conditions: RPS6KA3 (P51812), experiment wp146
# protein kinases (human kinome) (Homo sapiens, UniProt P51812), sequence (P51812 whole entry): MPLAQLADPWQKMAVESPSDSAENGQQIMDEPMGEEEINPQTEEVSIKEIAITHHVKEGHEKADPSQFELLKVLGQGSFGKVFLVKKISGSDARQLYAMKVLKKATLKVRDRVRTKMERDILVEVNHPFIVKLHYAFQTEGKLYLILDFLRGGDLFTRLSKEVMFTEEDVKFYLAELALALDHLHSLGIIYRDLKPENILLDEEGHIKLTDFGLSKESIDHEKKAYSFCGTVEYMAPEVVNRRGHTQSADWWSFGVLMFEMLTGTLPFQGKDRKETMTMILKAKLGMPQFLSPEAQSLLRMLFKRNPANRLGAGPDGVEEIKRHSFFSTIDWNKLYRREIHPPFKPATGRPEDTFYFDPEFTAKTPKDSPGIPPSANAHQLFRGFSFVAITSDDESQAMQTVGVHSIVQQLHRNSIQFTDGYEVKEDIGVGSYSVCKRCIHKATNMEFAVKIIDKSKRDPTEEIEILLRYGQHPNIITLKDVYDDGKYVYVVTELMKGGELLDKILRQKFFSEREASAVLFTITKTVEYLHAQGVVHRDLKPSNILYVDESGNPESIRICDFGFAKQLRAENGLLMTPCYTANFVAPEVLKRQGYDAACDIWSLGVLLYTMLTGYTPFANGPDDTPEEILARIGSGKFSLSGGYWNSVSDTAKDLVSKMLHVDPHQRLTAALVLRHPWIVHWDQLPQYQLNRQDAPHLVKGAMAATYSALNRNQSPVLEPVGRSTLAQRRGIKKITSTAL
# From the text: as §1, §2
# [5] = target: T2, protein kinases (human kinome) (Homo sapiens, UniProt O14965); assay type: cell-based; conditions: experiment wp146
# T2 sequence (O14965 1-403): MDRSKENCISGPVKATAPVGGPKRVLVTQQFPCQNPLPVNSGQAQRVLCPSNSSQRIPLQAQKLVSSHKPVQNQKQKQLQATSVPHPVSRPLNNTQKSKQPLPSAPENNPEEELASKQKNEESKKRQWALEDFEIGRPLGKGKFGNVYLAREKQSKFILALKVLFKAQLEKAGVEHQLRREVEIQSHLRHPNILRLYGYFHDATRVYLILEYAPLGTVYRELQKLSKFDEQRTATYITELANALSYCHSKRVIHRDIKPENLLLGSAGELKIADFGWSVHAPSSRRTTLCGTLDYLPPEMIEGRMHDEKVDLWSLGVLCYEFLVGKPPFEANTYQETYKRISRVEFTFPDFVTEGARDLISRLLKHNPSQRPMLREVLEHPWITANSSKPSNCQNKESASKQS
# From the text: as §1, §2
# [6] = target: protein kinases (human kinome) (Homo sapiens, UniProt P06493); assay type: cell-based; conditions: CDK1 P06493; experiment wp146
# protein kinases (human kinome) (Homo sapiens, UniProt P06493), sequence (P06493 whole entry): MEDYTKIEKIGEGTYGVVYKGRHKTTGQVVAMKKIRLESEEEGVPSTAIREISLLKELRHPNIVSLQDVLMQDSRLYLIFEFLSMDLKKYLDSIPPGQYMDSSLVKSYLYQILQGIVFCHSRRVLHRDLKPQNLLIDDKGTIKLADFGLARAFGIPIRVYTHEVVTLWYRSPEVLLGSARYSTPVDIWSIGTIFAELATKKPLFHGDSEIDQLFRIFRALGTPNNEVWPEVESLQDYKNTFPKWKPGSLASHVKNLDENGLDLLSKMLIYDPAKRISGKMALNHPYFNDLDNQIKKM
# From the text: as §1, §2
# [7] = target: protein kinases (human kinome) (Homo sapiens, UniProt Q05397); assay type: cell-based; conditions: PTK2 Q05397; experiment wp146
# protein kinases (human kinome) (Homo sapiens, UniProt Q05397), sequence (Q05397 whole entry): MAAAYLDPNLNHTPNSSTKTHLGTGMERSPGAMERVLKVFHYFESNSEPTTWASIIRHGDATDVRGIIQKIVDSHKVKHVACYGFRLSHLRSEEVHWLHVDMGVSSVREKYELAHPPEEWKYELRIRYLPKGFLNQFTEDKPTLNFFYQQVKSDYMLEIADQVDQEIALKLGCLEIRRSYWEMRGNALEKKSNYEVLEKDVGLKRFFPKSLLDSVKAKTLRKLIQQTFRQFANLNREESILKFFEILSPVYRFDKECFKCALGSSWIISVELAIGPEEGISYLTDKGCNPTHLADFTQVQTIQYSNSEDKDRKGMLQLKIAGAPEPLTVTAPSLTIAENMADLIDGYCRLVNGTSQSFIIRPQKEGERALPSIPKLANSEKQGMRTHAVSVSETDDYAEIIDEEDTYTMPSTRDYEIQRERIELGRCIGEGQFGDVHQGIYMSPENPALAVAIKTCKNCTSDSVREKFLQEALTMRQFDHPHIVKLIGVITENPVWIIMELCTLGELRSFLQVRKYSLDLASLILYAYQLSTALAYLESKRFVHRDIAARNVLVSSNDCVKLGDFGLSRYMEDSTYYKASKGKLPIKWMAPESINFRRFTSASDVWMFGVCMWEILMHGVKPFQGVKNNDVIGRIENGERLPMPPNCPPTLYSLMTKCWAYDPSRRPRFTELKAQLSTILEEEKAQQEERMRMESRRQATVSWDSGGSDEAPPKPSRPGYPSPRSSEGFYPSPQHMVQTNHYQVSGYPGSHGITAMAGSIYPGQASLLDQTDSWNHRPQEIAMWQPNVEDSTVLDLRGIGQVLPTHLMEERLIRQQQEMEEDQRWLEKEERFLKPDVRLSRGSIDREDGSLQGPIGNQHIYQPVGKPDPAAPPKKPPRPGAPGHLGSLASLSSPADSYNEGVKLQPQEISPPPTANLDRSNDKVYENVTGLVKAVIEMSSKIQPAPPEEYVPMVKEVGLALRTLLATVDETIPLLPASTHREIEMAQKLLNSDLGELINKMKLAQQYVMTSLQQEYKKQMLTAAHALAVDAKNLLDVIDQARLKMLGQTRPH
# From the text: as §1, §2
# [8] = target: protein kinases (human kinome) (Homo sapiens, UniProt Q9BYT3); assay type: cell-based; conditions: STK33 (Q9BYT3-1), experiment wp146
# protein kinases (human kinome) (Homo sapiens, UniProt Q9BYT3), sequence (Q9BYT3 whole entry): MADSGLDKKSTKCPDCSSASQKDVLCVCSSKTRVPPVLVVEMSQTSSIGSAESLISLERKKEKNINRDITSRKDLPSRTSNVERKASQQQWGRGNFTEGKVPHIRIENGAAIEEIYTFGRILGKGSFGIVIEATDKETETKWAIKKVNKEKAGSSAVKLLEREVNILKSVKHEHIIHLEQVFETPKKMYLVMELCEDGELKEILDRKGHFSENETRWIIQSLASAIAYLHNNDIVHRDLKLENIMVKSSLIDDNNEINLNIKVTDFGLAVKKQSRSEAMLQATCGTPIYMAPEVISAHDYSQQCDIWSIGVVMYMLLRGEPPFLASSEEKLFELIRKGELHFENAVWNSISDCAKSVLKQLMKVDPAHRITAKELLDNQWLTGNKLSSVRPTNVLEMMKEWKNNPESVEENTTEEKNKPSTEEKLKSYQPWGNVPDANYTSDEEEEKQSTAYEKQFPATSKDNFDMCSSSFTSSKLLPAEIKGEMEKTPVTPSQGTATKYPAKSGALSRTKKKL
# From the text: as §1, §2
# [9] = system: protein kinases (human kinome); assay type: cell-based
# From the text: as §1, §2
# [10] = target: protein kinases (human kinome) (Homo sapiens, UniProt P24941); assay type: cell-based; conditions: experiment wp146
# From the text: as §1, §2
# [11] = target: T3, protein kinases (human kinome) (Homo sapiens, UniProt Q969Z0); assay type: cell-based; conditions: Accession Q969Z0-1; experiment wp084; direction down
# T3 sequence (Q969Z0 108-631): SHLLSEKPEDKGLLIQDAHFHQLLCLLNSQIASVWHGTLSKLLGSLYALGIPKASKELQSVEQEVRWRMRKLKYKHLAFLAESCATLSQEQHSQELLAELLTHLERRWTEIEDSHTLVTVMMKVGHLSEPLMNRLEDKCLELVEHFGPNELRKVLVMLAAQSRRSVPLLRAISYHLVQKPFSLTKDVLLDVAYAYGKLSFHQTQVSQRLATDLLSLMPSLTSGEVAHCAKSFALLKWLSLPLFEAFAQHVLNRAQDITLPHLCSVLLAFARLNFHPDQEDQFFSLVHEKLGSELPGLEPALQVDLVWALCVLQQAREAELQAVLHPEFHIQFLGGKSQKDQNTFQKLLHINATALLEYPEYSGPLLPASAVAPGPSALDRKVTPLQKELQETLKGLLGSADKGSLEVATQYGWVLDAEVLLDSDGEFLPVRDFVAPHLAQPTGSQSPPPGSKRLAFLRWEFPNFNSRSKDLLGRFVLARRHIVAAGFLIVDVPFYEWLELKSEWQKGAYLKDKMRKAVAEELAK
# From the text: as §1, §2
# [12] = target: T4, protein kinases (human kinome) (Homo sapiens, UniProt Q9UEE5); assay type: cell-based; conditions: STK17A Q9UEE5; experiment wp195
# T4 sequence (Q9UEE5 1-414): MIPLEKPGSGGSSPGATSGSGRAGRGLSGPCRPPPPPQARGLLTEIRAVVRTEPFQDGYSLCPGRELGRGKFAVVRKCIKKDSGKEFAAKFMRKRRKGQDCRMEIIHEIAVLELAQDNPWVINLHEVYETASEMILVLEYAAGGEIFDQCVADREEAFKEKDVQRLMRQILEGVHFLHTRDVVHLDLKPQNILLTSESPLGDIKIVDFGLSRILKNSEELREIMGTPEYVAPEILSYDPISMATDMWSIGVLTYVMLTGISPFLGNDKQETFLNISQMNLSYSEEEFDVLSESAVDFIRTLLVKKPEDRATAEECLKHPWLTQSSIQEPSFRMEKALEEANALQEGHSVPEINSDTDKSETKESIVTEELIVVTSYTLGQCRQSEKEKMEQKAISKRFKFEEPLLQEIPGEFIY
# From the text: as §1, §2
# [13] = target: T5, protein kinases (human kinome) (Homo sapiens, UniProt O95835); assay type: cell-based; conditions: LATS1 O95835; experiment wp195
# T5 sequence (O95835 1-1130): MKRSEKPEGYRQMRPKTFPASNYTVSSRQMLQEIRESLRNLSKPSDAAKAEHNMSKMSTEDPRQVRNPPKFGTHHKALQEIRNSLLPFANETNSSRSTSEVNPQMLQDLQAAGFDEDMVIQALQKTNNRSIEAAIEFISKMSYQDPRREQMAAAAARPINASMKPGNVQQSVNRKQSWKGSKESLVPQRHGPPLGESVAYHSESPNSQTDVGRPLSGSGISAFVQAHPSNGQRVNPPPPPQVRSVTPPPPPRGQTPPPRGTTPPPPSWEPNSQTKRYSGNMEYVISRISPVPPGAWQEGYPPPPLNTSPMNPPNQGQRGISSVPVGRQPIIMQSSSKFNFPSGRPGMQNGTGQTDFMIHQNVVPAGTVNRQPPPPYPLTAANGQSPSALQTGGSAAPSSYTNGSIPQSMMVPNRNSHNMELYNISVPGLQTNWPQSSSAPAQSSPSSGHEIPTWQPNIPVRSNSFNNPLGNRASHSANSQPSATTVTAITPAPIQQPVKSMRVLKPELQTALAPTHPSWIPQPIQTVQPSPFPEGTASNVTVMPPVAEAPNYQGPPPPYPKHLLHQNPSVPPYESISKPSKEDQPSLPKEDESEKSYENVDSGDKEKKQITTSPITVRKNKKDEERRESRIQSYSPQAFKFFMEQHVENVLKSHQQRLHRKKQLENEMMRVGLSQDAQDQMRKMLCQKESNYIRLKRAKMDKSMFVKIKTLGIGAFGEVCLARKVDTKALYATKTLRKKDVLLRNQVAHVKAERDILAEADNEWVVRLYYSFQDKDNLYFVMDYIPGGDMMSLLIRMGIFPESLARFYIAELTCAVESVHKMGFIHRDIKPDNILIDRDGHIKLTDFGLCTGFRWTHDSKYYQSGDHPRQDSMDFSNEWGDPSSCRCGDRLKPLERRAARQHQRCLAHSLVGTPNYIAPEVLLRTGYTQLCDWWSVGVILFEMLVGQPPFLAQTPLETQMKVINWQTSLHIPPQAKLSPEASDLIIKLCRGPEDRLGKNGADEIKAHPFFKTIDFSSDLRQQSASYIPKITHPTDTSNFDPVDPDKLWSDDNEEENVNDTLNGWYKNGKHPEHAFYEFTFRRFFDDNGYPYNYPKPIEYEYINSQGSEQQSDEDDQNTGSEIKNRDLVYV
# From the text: as §1, §2
# [14] = target: T6, extended human kinome (kinase-like proteins) (Homo sapiens, UniProt Q9UHH9); test: Whole cell quantitative proteomics: extended kinome hits; conditions: Accession Q9UHH9; experiment wp195
# T6 sequence (Q9UHH9 1-426): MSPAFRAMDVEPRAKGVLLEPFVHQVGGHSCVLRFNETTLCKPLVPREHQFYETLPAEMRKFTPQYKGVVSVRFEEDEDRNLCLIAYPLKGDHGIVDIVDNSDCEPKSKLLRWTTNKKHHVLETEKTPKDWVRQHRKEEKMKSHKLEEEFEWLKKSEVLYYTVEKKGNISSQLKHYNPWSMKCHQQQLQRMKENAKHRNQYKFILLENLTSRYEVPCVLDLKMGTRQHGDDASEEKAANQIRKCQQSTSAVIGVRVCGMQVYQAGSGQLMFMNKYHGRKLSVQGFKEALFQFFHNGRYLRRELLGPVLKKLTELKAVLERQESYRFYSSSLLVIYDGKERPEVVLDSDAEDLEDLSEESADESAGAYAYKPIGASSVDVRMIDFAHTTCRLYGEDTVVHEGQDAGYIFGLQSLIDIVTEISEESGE
# Experimental: Whole cell multiplexed quantitative proteomics was employed to measure changes in abundance of the proteome in response to treatment with each of the kinase degrader molecules relative to DMSO (Table 1, Appendix I).
# Cells were treated with DMSO (biological triplicate) or degrader at indicated dose and time and cells were harvested by centrifugation. […] Precipitated protein was resuspended in 4 M Urea, 50 mM HEPES pH 7.4, followed by dilution to 1 M urea with the addition of 200 mM EPPS, pH 8. Proteins were first digested with LysC (1:50: enzyme:protein) for 12 hours at room temperature. The LysC digestion was diluted to 0.5 M Urea with 200 mM EPPS pH 8 followed by digestion with trypsin (1:50; enzyme:protein) for 6 hours at 37° C. Tandem mass tag (TMT) reagents (Thermo Fisher Scientific) were dissolved in anhydrous acetonitrile (ACN) according to manufacturer's instructions. […] The 10, 11, or 16-plex labeling reactions were performed for 1.5 hours at room temperature and the reaction quenched by the addition of hydroxylamine to a final concentration of 0.3% for 15 minutes at room temperature. The sample channels were combined at a 1:1 ratio, desalted using C18 solid phase extraction cartridges (Waters®) and analyzed by LC-MS for channel ratio comparison. Samples were then combined using the adjusted volumes determined in the channel ratio analysis and dried down in a speed vacuum. The combined sample was then resuspended in 1% formic acid, and acidified (pH 2-3) before being subjected to desalting with C18 SPE (Sep-Pak®, Waters®). Samples were then offline fractionated into 96 fractions by high pH reverse-phase HPLC (Agilent® LC1260) through an aeris peptide xb-c18 column (Phenomenex®) with mobile phase A containing 5% acetonitrile and 10 mM NH4HCO3 in LC-MS grade H2O, and mobile phase B containing 90% acetonitrile and 10 mM NH4HCO3 in LC-MS grade H2O (both pH 8.0). The 96 resulting fractions were then pooled in a non-continuous manner into 24 fractions and desalted using C18 solid phase extraction plates (SOLA®, Thermo Fisher Scientific) followed by subsequent mass spectrometry analysis.
# Data were collected using an Orbitrap Fusion™ Lumos™ mass spectrometer (Thermo Fisher Scientific, San Jose, CA, USA) coupled with a Proxeon EASY-nLC™ 1200 LC pump (Thermo Fisher Scientific) or an Orbitrap Eclipse™ Tribrid™ mass spectrometer (Thermo Fisher Scientific, San Jose, CA, USA) coupled with an UltiMate™ 3000 RSLCnano System. Peptides were separated on an EasySpray™ ES803a/ES803a.rev2 75 μm inner diameter microcapillary column (ThermoFisher Scientific).
# Data dependent MS2 spectra were acquired in the ion trap with a normalized collision energy (NCE) set at 35%, AGC target set to 1.8×10^4 and a maximum injection time of 120 ms. MS3 scans were acquired in the Orbitrap with HCD collision energy set to 55%. AGC target set to 2×10^5, maximum injection time of 150 ms, resolution at 50,000 and with a maximum synchronous precursor selection (SPS) precursors set to 10.
# Proteome Discoverer™ 2.1, 2.2 or 2.4 (Thermo Fisher Scientific) was used for .RAW file processing and controlling peptide and protein level false discovery rates, assembling proteins from peptides, and protein quantification from peptides.
# [15] = AURKB Q96GD4-5, experiment wp146
smiles,measurement,setting,value
Cc1cc(S(=O)(=O)NCCOCCOCCOCCOCCNc2cccc3c2C(=O)N(C2CCC(=O)NC2=O)C3=O)ccc1Nc1ncc(Br)c(Nc2cccc(F)c2C(N)=O)n1 (centres unmarked) [TMX.02.172],logFC TTK,[1]; Accession P33981,−0.7542
same,logFC TTK (P33981),[1],−0.7542
same,logFC,[2],−1.091
same,logFC MAPK9,[2],−1.091
same,logFC CDK5 (Q00535),[3],−2.878
same,logFC CDK5 (Q00535),[3]; direction of change down,−2.878
same,logFC,[4],−0.8349
same,logFC,[4]; direction down,−0.8349
same,logFC AURKA (O14965),[5],−2.402
same,logFC,[6],−1.302
same,logFC CDK1,[6],−1.302
same,logFC,[7],−0.7381
same,logFC PTK2,[7],−0.7381
same,logFC,[8],−1.295
same,logFC,[8]; direction down,−1.295
same,logFC,[9]; [15],−0.4856
same,logFC AURKB,[9]; [15],−0.4856
same,logFC MAPK8 (P45983-4),"[9]; Experiment wp146, direction down",−0.5524
same,logFC MAPK8,"[9]; MAPK8 P45983-4, experiment wp146",−0.5524
same,logFC RPS6KA1,"[9]; RPS6KA1 (Q15418-2), experiment wp146",−1.351
same,logFC RPS6KA1 (Q15418-2),[9]; experiment wp146,−1.351
same,logFC CDK2 (P24941-1),[10],−2.199
same,logFC CDK2 (P24941-1),[10]; direction of change down,−2.199
CC(=O)c1c(C)c2cnc(Nc3ccc(N4CCN(CCOCCOCCOCCNC(=O)COc5cccc6c5C(=O)N(C5CCC(=O)NC5=O)C6=O)CC4)cn3)nc2n(C2CCCC2)c1=O (centres unmarked) [BS.J.03.123],logFC TBRG4,[11],−0.5
Cc1ncsc1-c1ccc([C@H](C)NC(=O)[C@@H]2C[C@@H](O)CN2C(=O)[C@@H](NC(=O)CCCCOc2ccccc2-c2ccc3nc(-c4cccnc4N)n(-c4ccc(C5(N)CCC5)cc4)c3n2)C(C)(C)C)cc1 [INY.04.125.01],logFC,[12],−0.4084
same,logFC STK17A,[12],−0.4084
same,logFC,[13],−0.4176
same,logFC LATS1,[13],−0.4176
same,logFC IP6K2,[14],−0.4946

# From patent US20240269139A1, “COMPOUNDS FOR TARGETED PROTEIN DEGRADATION OF KINASES” (DANA-FARBER CANCER INSTITUTE, INC., priority 2020, published 2024)
